Patent US6914045B2, “Glycopeptide antibiotics” (Wyeth Holdings Corporation, priority 2001, dated 2005)
Values after ≈ are worked out from the molar mass of the structure shown.

Key:
Assay in all cases: in vitro antibacterial evaluation, MIC by broth dilution
Type in all cases: cell-based
Escherichia coli = test system: Escherichia coli
Summary of the method: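 Broth dilution MIC per NCCLS M7-A2 in Mueller-Hinton II medium, inoculum 5×10^5 CFU/mL, antibiotic range 64-0.06 μg/mL. MIC taken as lowest concentration inhibiting growth.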

Enterococcus sp. = test system: Enterococcus sp.
Protocol: (§1) Methods for in vitro Antibacterial Evaluation (Table 1)
(§2) The minimum inhibitory concentration (MIC), the lowest concentration of the antibiotic which inhibits growth of the test organism, is determined by the broth dilution method using Muller-Hinton II […] (Baltimore Biological Laboratories) following the recommendations of the National Committee for Clinical Laboratory Standards [Methods for dilution antimicrobial susceptibility tests for bacteria that grow aerobically, approved standard M7-A2, National Committee for Clinical Laboratory Standards, Villanova, Pa.].
(§3) An inoculum level of 5×10^5 CFU/mL, and a range of antibiotic concentrations (64-0.06 μg/mL) is used. […] The test organisms include a spectrum of Gram-positive bacteria comprised of Staphylococcus sp., Streptococcus sp. and Enterococcus sp. These organisms include recent clinical isolates that are resistant to methicillin, penicillin and/or vancomycin.

Staphylococcus sp. = test system: Staphylococcus sp.
Protocol: as §1, §2, §3

Streptococcus sp. = test system: Streptococcus sp.
Protocol: as §1, §2, §3

Structure (SMILES): CC(c1ccccc1)C1NC(=O)CNC(=O)C(CO)NC(=O)C(C(O)C2CNC(=N)N2C2OC(CO)C(O)C(O)C2O)NC(=O)C(C(O)C2CNC(=N)N2)NC(=O)C(Cc2ccc3oc(-c4ccc(-c5ccccc5)cc4)nc3c2)NC1=O (stereo not drawn) [Example 33, Cyclo[3-[2-([1,1-biphenyl]-4-yl)-1,3-benzoxazol-5-yl]alanyl-3-(2-iminoimidazolidin-4-yl)-seryl-3-(3-hexopyranosyl-2-iminoimidazolidin-4-yl)serylserylglycyl-β-methylphenylalanyl]]
- MIC Escherichia coli (ATCC 25922) (Escherichia coli): 64 µg/mL (≈ 55.7 µM)
- MIC Escherichia coli (GC 4559) (Escherichia coli): 64 µg/mL (≈ 55.7 µM)
- MIC Escherichia coli (GC 4560) (Escherichia coli): 16 µg/mL (≈ 13.9 µM)
- MIC Enterococcus avium (GC 4558) (Enterococcus sp.): 8 µg/mL (≈ 6.97 µM)
- MIC Enterococcus faecalis (ATCC 29212) (Enterococcus sp.): 32 µg/mL (≈ 27.9 µM)
- MIC Enterococcus faecalis (GC 2242) (Enterococcus sp.): 16 µg/mL (≈ 13.9 µM)
- MIC Enterococcus faecalis (GC 2691) (Enterococcus sp.): 16 µg/mL (≈ 13.9 µM)
- MIC Enterococcus faecalis (GC 3059) (Enterococcus sp.): 32 µg/mL (≈ 27.9 µM)
- MIC Enterococcus faecalis (GC 4552) (Enterococcus sp.): 16 µg/mL (≈ 13.9 µM)
- MIC Enterococcus faecalis (GC 4553) (Enterococcus sp.): 16 µg/mL (≈ 13.9 µM)
- MIC Enterococcus faecalis (GC 4554) (Enterococcus sp.): 16 µg/mL (≈ 13.9 µM)
- MIC Enterococcus faecalis (GC 6189) (Enterococcus sp.): 16 µg/mL (≈ 13.9 µM)
- MIC Enterococcus faecium (GC 2243) (Enterococcus sp.): 8 µg/mL (≈ 6.97 µM)
- MIC Enterococcus faecium (GC 4556) (Enterococcus sp.): 64 µg/mL (≈ 55.7 µM)
- MIC Enterococcus faecium (GC 4557) (Enterococcus sp.): 4 µg/mL (≈ 3.48 µM)
- MIC Coagulase Negative Staphylococcus (GC 4547) (Staphylococcus sp.): 4 µg/mL (≈ 3.48 µM)
- MIC Coagulase Negative Staphylococcus (GC 4548) (Staphylococcus sp.): 4 µg/mL (≈ 3.48 µM)
- MIC Coagulase Negative Staphylococcus (GC 4549) (Staphylococcus sp.): 1 µg/mL (≈ 0.871 µM)
- MIC Coagulase Negative Staphylococcus (GC 4551) (Staphylococcus sp.): 8 µg/mL (≈ 6.97 µM)
- MIC Coagulase Negative Staphylococcus (GC 6257) (Staphylococcus sp.): 4 µg/mL (≈ 3.48 µM)
- MIC Staphylococcus aureus (ATCC 29213) (Staphylococcus sp.): 8 µg/mL (≈ 6.97 µM)
- MIC Staphylococcus aureus (GC 1131) (Staphylococcus sp.): 4 µg/mL (≈ 3.48 µM)
- MIC Staphylococcus aureus (GC 3051) (Staphylococcus sp.): 16 µg/mL (≈ 13.9 µM)
- MIC Staphylococcus aureus (GC 3053) (Staphylococcus sp.): 8 µg/mL (≈ 6.97 µM)
- MIC Staphylococcus aureus (GC 4541) (Staphylococcus sp.): 8 µg/mL (≈ 6.97 µM)
- MIC Staphylococcus aureus (GC 4542) (Staphylococcus sp.): 8 µg/mL (≈ 6.97 µM)
- MIC Staphylococcus aureus (GC 4544) (Staphylococcus sp.): 4 µg/mL (≈ 3.48 µM)
- MIC Staphylococcus aureus (GC 4545) (Staphylococcus sp.): 8 µg/mL (≈ 6.97 µM)
- MIC Staphylococcus aureus-SMITH (GC 4543) (Staphylococcus sp.): 4 µg/mL (≈ 3.48 µM)
- MIC Staphylococcus haemolyticus (GC 4546) (Staphylococcus sp.): 4 µg/mL (≈ 3.48 µM)
- MIC Streptococcus agalactiae (GC 4564) (Streptococcus sp.): 32 µg/mL (≈ 27.9 µM)
- MIC Streptococcus pneumoniae (ATCC 6301) (Streptococcus sp.): 32 µg/mL (≈ 27.9 µM)
- MIC Streptococcus pneumoniae (GC 1894) (Streptococcus sp.): 32 µg/mL (≈ 27.9 µM)
- MIC Streptococcus pneumoniae (GC 4565) (Streptococcus sp.): 64 µg/mL (≈ 55.7 µM)
- MIC Streptococcus pyogenes (GC 4563) (Streptococcus sp.): 16 µg/mL (≈ 13.9 µM)
